pIC50: −log10 of the molar value. Read-outs that look alike come from different tables or passages of the source.
Assays:
[1] = system: c-jun phosphorylation in SH-SY5Y human neuroblastoma cell line; assay: In Cell Western Assay, p-c-jun after TNFa; format: cell-based; conditions: SH-SY5Y cells, 25 ng/ml TNFa 1 hour, read-out: Phosphoryl. in SH-SY5Y
Method: SH-SY5Y human neuroblastoma cell line was utilized for the assay. […] Next day, cells were starved of serum for 2 hours by media replacement with serum free DMEM:F12. Cells were then pretreated with inhibitors in DMEM:F12 for 30 min, which was followed by the addition of 25 ng/ml of TNFa for 1 hour. At the end of incubation, cells were fixed with 3% paraformaldehyde for 20 min at room temperature. Following three washes with 0.1 M phosphate buffer (pH 7.0) with shaking during washes, cells were treated with Licor blocking buffer (1:1 dilution in PBS with 0.3% Triton X-100) for 1 hour on a shaker. […] Next day, cells were washed with PBS containing 0.3% Triton X-100 for 5 min each three times with shaking. […] Following three 5 min washes, cells were incubated for nuclei staining with Alexa 680 succinidimyl ester (Thermofisher cat #, A20008) at 1/40,000 dilution for 15 min with shaking and subsequent three 5 min washes. P-c-jun and nuclei signals were detected using Odyssey LiCor Infrared scanner. The p-c-jun signal of each well was normalized to the cell number using nuclei signal.

JNK1 = target: T1, JNK1 (Homo sapiens, UniProt P45983); assay: HotSpot Kinase Assay, JNK1; format: biochemical; conditions: HotSpot radiometric assay, 33P-ATP
T1 construct: purchased Reaction Biology Corp
T1 sequence (P45983 whole entry): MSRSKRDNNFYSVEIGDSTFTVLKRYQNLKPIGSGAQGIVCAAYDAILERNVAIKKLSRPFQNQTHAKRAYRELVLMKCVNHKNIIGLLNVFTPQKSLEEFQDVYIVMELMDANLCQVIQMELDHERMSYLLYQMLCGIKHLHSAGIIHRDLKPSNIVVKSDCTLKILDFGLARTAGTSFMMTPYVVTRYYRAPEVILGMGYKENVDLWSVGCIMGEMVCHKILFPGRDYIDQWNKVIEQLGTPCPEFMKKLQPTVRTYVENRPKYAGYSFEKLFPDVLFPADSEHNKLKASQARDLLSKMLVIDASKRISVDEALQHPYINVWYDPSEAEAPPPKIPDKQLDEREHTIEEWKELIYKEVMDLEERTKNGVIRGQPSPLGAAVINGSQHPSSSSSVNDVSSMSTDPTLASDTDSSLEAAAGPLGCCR
Method: (§1) The anti-JNK3 activity of compounds prepared as in the previous examples was evaluated using a Reaction Biology Corp. HotSpot Kinase Assay. Base reaction buffer was 20 mM HEPES (4-(2-hydroxyethyl)-1-piperazineethanesulfonic acid) at pH 7.5 with 10 mM MgCl2, 1 mM EGTA (ethylene glycol-bis(β-aminoethyl ether)-N,N,N′,N′-tetracetic acid), 0.02% Brij™ 35, 0.02 mg/mL BSA (bovine serum albumin), 0.1 mM Na3VO4, 2 mM DTT (dithiothreitol), and 1% DMSO. Required cofactors were added individually to each kinase reaction.
(§2) Activity against related enzymes JNK1 and P38a was further assessed using the same assay.

p38a = target: T2, p38a (Homo sapiens, UniProt Q16539); assay: HotSpot Kinase Assay, P38a; format: biochemical; conditions: HotSpot radiometric assay, 33P-ATP
T2 construct: purchased Reaction Biology Corp
T2 sequence (Q16539 whole entry): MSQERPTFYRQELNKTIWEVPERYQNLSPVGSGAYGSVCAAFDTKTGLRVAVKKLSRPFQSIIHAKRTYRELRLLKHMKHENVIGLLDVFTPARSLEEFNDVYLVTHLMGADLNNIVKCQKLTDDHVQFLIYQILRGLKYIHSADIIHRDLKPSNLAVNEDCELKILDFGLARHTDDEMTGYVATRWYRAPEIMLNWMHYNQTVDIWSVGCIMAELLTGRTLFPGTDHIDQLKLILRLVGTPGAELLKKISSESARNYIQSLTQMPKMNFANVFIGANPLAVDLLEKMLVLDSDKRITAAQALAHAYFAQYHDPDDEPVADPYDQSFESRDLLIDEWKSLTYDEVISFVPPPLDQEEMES
Method: as §1, §2

JNK3 = target: T3, JNK3 (Homo sapiens, UniProt P53779); assay: HotSpot Kinase Assay (Reaction Biology Corp.), anti-JNK3 activity; format: biochemical; conditions: HotSpot radiometric assay, 33P-ATP
T3 construct: purchased Reaction Biology Corp
T3 sequence (P53779 whole entry): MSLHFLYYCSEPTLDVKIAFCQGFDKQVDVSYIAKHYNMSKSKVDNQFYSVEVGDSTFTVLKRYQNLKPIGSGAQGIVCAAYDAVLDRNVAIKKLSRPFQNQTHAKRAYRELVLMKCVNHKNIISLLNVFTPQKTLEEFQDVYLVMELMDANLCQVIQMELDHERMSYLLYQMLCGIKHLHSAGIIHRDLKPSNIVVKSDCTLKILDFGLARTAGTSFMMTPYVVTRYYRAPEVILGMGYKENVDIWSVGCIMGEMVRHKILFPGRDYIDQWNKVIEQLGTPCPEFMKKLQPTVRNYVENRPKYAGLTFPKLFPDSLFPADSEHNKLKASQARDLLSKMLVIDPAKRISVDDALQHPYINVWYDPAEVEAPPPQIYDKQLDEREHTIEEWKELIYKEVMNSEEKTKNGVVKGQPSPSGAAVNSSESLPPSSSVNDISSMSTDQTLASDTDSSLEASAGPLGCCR
Method: as §1, §2

| SMILES | pIC50 [1] | pIC50 (JNK1) | pIC50 (p38a) | pIC50 (JNK3) | pIC50 ([1]; printed as a numeric range) |
| --- | --- | --- | --- | --- | --- |
| CNC(=O)c1cc(-n2ncc3cc(Nc4ccccc4Cl)ncc32)cs1 [Compound 6, 4-(5-((2-chlorophenyl)amino)-1H-pyrazolo[3,4-c]pyridin-1-yl)-N-methylthiophene-2-carboxamide] |  | < 6.00 | 6.00 to 6.70 | > 6.70 | 7.00 to 8.00 |
| CNC(=O)c1cc(-n2ncc3nc(Nc4ccccc4Cl)ccc32)cs1 [Compound 50, 4-(5-((2-chlorophenyl)amino)-1H-pyrazolo[4,3-b]pyridin-1-yl)-N-methylthiophene-2-carboxamide] | > 6.70 | < 6.00 | 6.00 to 6.70 | > 6.70 |  |
| [2H]C([2H])([2H])N1CC[C@H](NC(=O)c2cc(-n3ncc4cc(Oc5ccccc5Cl)ccc43)cs2)C1 [Compound 9, (S)-4-(5-(2-chlorophenoxy)-1H-indazol-1-yl)-N-(1-(methyl-d3)pyrrolidin-3-yl)thiophene-2-carboxamide] | < 6.00 | < 6.00 | < 6.00 | > 6.70 |  |
| CC1COC(NC(=O)c2cc(-n3ncc4cc(Nc5ccccc5Cl)cnc43)cs2)=N1 (stereo not drawn) [Compound 69, 4-(5-((2-chlorophenyl)amino)-1H-pyrazolo[3,4-b]pyridin-1-yl)-N-(4-methyl-4,5-dihydrooxazol-2-yl)thiophene-2-carboxamide] |  | 6.00 to 6.70 | 6.00 to 6.70 | > 6.70 |  |
| CC(C)N1CC[C@@H](NC(=O)c2cc(-n3ncc4cc(Nc5ccccc5Cl)ccc43)cs2)C1 [Compound 35, (R)-4-(5-((2-chlorophenyl)amino)-1H-indazol-1-yl)-N-(1-isopropylpyrrolidin-3-yl)thiophene-2-carboxamide] |  | 6.00 to 6.70 | 6.00 to 6.70 | > 6.70 |  |
| O=C(NC(CO)CO)c1cc(-n2ncc3nc(Nc4ccccc4Cl)ccc32)cs1 [Compound 53, 4-(5-((2-chlorophenyl)amino)-1H-pyrazolo[4,3-b]pyridin-1-yl)-N-(1,3-dihydroxypropan-2-yl)thiophene-2-carboxamide] |  | < 6.00 | < 6.00 | > 6.70 |  |

Next, values leading:

| pIC50 [1] | pIC50 (JNK1) | pIC50 (p38a) | pIC50 (JNK3) | pIC50 ([1]; printed as a numeric range) | SMILES |
| --- | --- | --- | --- | --- | --- |
| > 6.70 | 6.00 to 6.70 | 6.00 to 6.70 | > 6.70 |  | [2H]C([2H])([2H])N1CC[C@H](NC(=O)c2cc(-n3ncc4cc(Nc5ccccc5Cl)c(F)cc43)cs2)C1 [Compound 36, (S)-4-(5-((2-chlorophenyl)amino)-6-fluoro-1H-indazol-1-yl)-N-(1-(methyl-d3)pyrrolidin-3-yl)thiophene-2-carboxamide] |
| > 6.70 | 6.00 to 6.70 | 6.00 to 6.70 | > 6.70 |  | [2H]C([2H])([2H])N1CC[C@H](NC(=O)c2cc(-n3ncc4cc(Nc5ccccc5Cl)ccc43)cs2)C1 [Compound 30, (S)-4-(5-((2-chlorophenyl)amino)-1H-indazol-1-yl)-N-(1-(methyl-d3)pyrrolidin-3-yl)thiophene-2-carboxamide] |
| > 6.70 | 6.00 to 6.70 | > 6.70 | > 6.70 |  | CNC(=O)c1cc(-n2ncc3cc(Nc4ccccc4Cl)c(F)cc32)cs1 [Compound 28, 4-(5-((2-chlorophenyl)amino)-6-fluoro-1H-indazol-1-yl)-N-methylthiophene-2-carboxamide] |
|  | 6.00 to 6.70 | 6.00 to 6.70 | > 6.70 |  | COCCNC(=O)c1cc(-n2ncc3nc(Oc4ccccc4Cl)ccc32)cs1 [Compound 56, 4-(5-(2-chlorophenoxy)-1H-pyrazolo[4,3-b]pyridin-1-yl)-N-(2-methoxyethyl)thiophene-2-carboxamide] |

— patent US12448375B2, “Kinase inhibitors for the treatment of neurodegenerative diseases” (Ohio State Innovation Foundation, priority 2019, dated 2025)
